Assay results as given in article PMC10076671, “Spider venom-derived peptide JZTX-14 prevents migration and invasion of breast cancer cells via inhibition of sodium channels” (Frontiers in Pharmacology, 2023).
pIC50: −log10 of the molar value. Where a SMILES comes first, the peptide text is derived from it. Bridges are numbered along the chain shown (N, C = ends).

Molecular target: T1, MDA-MB-231 sodium channels (Homo sapiens, UniProt Q14524)
T1 construct: host or cells: MDA-MB-231
Assay: Whole-cell patch clamp, sodium currents in MDA-MB-231 cells
Type: cell-based
Method: Sodium currents in experimental cells were recorded at room temperature (22°C–25°C) using an EPC-10 patch-clamp amplifier (HEKA, Germany) in a whole-cell patch-clamp configuration. Recording pipettes were made from borosilicate glass capillaries (VWR, United States) using a PC-10 puller (Narishige, Japan). The inner solution (mM): KCl 130, NaCl 15, CaCl2 0.37, MgCl2 1 EGTA 1, HEPES 10, pH 7.2, resistance was measured as 1.8 MO. The outer solution was composed of (mM): NaCl 140, KCl 3, MgCl2 1, CaCl2 1, HEPES 10, pH 7.2. To minimize voltage errors, the series resistance compensation was set to 80%. The P/4 protocol was used to subtract the linear capacitance and leakage current. Experimental data were acquired and analyzed using the pulse fit 8.0 program (HEKA, Germany). The needed concentrations of toxin dissolved in external solution were applied to the cell surface by microinjector.
The biological activity of synthetic JZTX-14 in MDA-MB-231 cells was recorded using the whole-cell patch-clamp method. MDA-MB-231 sodium channels are sensitive to JZTX-14. […] The inward sodium current was induced by a 50 ms depolarisation potential of −30 mV at a holding potential of −100 mV (Figure 3A). The inhibition by JZTX-14 was concentration-dependent (Figure 3B). […] Next, we determined the effects of JZTX-14 on the current-voltage (I–V) curves of sodium channels resulting from a series of currents induced by a set of depolarising potentials ranging from −100 to +60 mV when cells were held at −100 mV (Figure 3C). […] We also investigated the effect of JZTX-14 on the steady-state inactivation of sodium channels in MDA-MB-231 cells. […] shifted the inactivation curves for sodium channels by approximately 10 mV (Figure 3D).

For `CC[C@H](C)[C@H](NC(=O)[C@@H]1CSSC[C@@H]2NC(=O)[C@@H]3CCCN3C(=O)[C@@H]3CCCN3C(=O)[C@H](CCC(N)=O)NC(=O)CNC(=O)[C@@H]3CCCN3C(=O)[C@H](Cc3c[nH]cn3)NC(=O)[C@@H]3CSSC[C@H](NC(=O)[C@H](C)NC(=O)[C@H](CC(C)C)NC(=O)CNC(=O)[C@H](CO)NC(=O)[C@H](CSSC[C@H](NC(=O)CN)C(=O)N[C@@H](CCC(N)=O)C(=O)N[C@@H](CCCCN)C(=O)N[C@@H](Cc4ccccc4)C(=O)N[C@@H](Cc4ccccc4)C(=O)N[C@@H](Cc4c[nH]c5ccccc45)C(=O)N[C@@H]([C@@H](C)O)C(=O)N3)NC2=O)C(=O)N[C@@H]([C@@H](C)O)C(=O)N[C@@H](Cc2c[nH]c3ccccc23)C(=O)N2CCC[C@H]2C(=O)N[C@@H]([C@@H](C)O)C(=O)N[C@@H](CCC(=O)O)C(=O)N[C@@H]([C@@H](C)CC)C(=O)N1)C(=O)N[C@@H](CC(C)C)C(N)=O` [JZTX-14] (H-GCQKFFWTCHPGQPPCCSGLACTWPTEICIL-NH2; disulfide 2-17, 9-22, 16-29), the “Inhibition of inward sodium currents (in words)” value (500 nM and 1 μM, 50 ms depolarisation to −30 mV, holding potential −100 mV) was “inhibited the inward sodium currents”, the “Shift of steady-state inactivation curves of sodium channels” value (1 μM (Figure 3D), 6 cells per point, direction not given) was “approximately 10 mV” and the “Shift of activation thresholds of sodium channels” value (1 μM, in the depolarising direction, I–V curves from −100 to +60 mV, holding potential −100 mV) was “approximately 10 mV”. For the same compound, the pIC50 (Hill equation fit, 50 ms depolarisation to −30 mV, holding potential −100 mV, synthetic JZTX-14, 6 cells per point, read-out: IC50, inhibition of sodium current) was 6.40.
